Holding throughout (assay): NCI tumour cell line growth inhibition, 48 h
Experiment [1] concerns SNB-19 CNS.
The subject of experiment [2] is OVCAR-5 ovarian.
Experiment [3] concerns TK-10 renal.
Experiment [4] concerns UO-31 renal.
Experiment [5] concerns OVCAR-3 ovarian.
Experiment [6] has as its system SK-OV-3 ovarian.
The test system of experiment [7] is A549 NSCLC.
The test system of experiment [8] is SF-539 CNS.
In experiment [9] the test system is MOLT-4 leukemia.
The test system of experiment [10] is CCRF-CEM leukemia.
For experiment [11], the system named is ACHN renal.
Experiment [12] concerns OVCAR-8 ovarian.
For experiment [13], the system named is U251 CNS.
For experiment [14], the system named is A498 renal.

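Five concentrations, 48 hours, 96-well plates. The concentration for full growth arrest is given as TGI.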

As to `O=C(c1cccs1)N(C(=S)N1CCN(c2ccccn2)CC1)c1ccccc1`, the TGI in experiment [1], in [2], in [3], in [4], in [5] and in experiment [6] was > 100 µM throughout. Besides, the TGI in experiment [7], in [8], in [9], in [10], in experiment [11] and in [12] was > 100 µM each time. Further, in experiment [13], the TGI is > 100 µM.

Regarding `COc1ccc2[nH]cc(CCNC(=O)[C@H](Cc3ccccc3)NC(=O)[C@@H](NCC(F)(F)F)C(C)C)c2c1`, the TGI was 84.8 µM in experiment [1]; 34.8 µM in experiment [2]; 57.4 µM in [3]; 68.3 µM in [4]; 31.1 µM in experiment [5]; 33.3 µM in experiment [6]. Besides, the TGI in experiment [7] worked out at 70 µM; in experiment [8], 34.3 µM; in experiment [9] it was 69.5 µM; in experiment [10] it was 7.89 µM; in experiment [11], 67.7 µM; in experiment [12], 54.4 µM. In [13], this compound had a TGI of 39 µM.

In the case of `O=c1c2c(oc3ccccc13)-c1ccccc1OC2`, the TGI is > 100 µM in experiment [2]; > 100 µM in [3]; > 100 µM in experiment [4]; > 100 µM in [5]; 53.2 µM in experiment [6]; > 100 µM in experiment [7]. The TGI is 72.7 µM in experiment [8]; > 100 µM in [9]; > 100 µM in [10]; > 100 µM in [11]; > 100 µM in experiment [12]; > 100 µM in experiment [13].

With `C=Cc1ccc(C)[n+](C[Si](C)(C)O[Si](C)(C)C)c1`, the TGI in experiment [1], in experiment [2], in [4], in experiment [5], in [6] and in experiment [7] was > 100 µM in each case. Also, the TGI in experiment [8], in [9], in experiment [10], in experiment [11], in experiment [12] and in experiment [13] was > 100 µM throughout.

Turning to `CS(=O)(=O)c1nc(-c2cc3c(c(S(C)(=O)=O)n2)CCC3)cc2c1CCCCC2`, the TGI in experiment [1] was > 100 µM; in [2] it was > 100 µM; in [3] it was > 100 µM; in experiment [4] it was > 100 µM; in experiment [5] it was > 100 µM; in experiment [6] it was 34.9 µM. Moreover, the TGI in [7], in experiment [9], in [10], in experiment [11], in experiment [12] and in [13] was > 100 µM each time.

On to `O=C(Nc1ccc(Cl)cc1)NS(=O)(=O)c1coc2cc(F)ccc2c1=O`, for which the TGI in experiment [1], in [2], in experiment [3], in experiment [4], in experiment [5] and in experiment [6] was > 100 µM each time. The TGI in experiment [7], in experiment [8], in [9], in experiment [10], in experiment [11] and in experiment [12] was > 100 µM each time. Also, in experiment [13], the TGI was > 100 µM.

In the case of `N#Cc1c(N)nc(-c2ccc(Cl)cc2)c2c1-c1ccccc1S(=O)(=O)CC2`, the TGI in [1] is 93.9 µM; in experiment [14] it was > 100 µM; in experiment [2], > 100 µM; in [3], > 100 µM; in experiment [4], > 100 µM; in experiment [5], > 100 µM. Besides, the TGI in experiment [7], in [11], in experiment [12] and in [13] was > 100 µM each time.

Turning to `C(=C\c1cccs1)/c1cccc(/C=C/c2cccs2)n1`, the TGI in experiment [1], in experiment [2], in experiment [3], in [4], in experiment [5] and in experiment [6] was > 100 µM each time. For the same compound, the TGI was > 100 µM in experiment [7]; > 100 µM in experiment [8]; > 100 µM in experiment [9]; > 100 µM in experiment [10]; 38.9 µM in experiment [11]; > 100 µM in experiment [12]. Moreover, the TGI in [13] is > 100 µM.

Consider `COC(=O)C1(CCC(C)=O)CCCCCC1=O` (centres undefined), for which the TGI in [1], in experiment [14], in experiment [2], in experiment [3], in [4] and in experiment [5] was > 100 µM each time. Also, the TGI in experiment [6], in experiment [7], in experiment [8], in experiment [9], in experiment [11] and in experiment [13] was > 100 µM in each case.

In the case of `O=[N+]([O-])/C(C(Cl)=C(Cl)Cl)=C(\N1CCOCC1)n1nnc2ccccc21`, the TGI turned out to be 33.7 µM in [1]; 37.8 µM in [14]; 44 µM in experiment [2]; 63.8 µM in experiment [3]; 33 µM in experiment [4]; 42.2 µM in experiment [5]. In addition, the TGI was determined as 79.2 µM in [6]; 42.7 µM in experiment [7]; 32.8 µM in experiment [8]; 72.3 µM in [9]; 34.9 µM in [11]; 30.3 µM in [13].

Turning to `O=c1[nH]c2cc(Cl)ccc2nc1/C(=N\O)C(O)c1cccc([N+](=O)[O-])c1` (centres undefined), the TGI in [1], in experiment [2], in [3], in [4], in [5] and in experiment [6] was > 100 µM throughout. Besides, the TGI in experiment [7], in experiment [8], in [9], in experiment [10], in experiment [11] and in experiment [12] was > 100 µM throughout.

Source of the values: PubChem BioAssay (NCI).
